In patent US9131716B2, “Use of neoflavonoids for flavor modification” (SYMRISE AG, priority 2011, dated 2015):
Marks after values point to notes of the source that are not given here.

Legend:
[1] = Reduction of bitterness of a naringin solution, panel of experts; type: in vivo; conditions: 100 ppm naringin
Description: (§1) In order to quantify the reduction (i.e. the masking or decrease) of the impression of bitterness in a sample, the bitterness of a solution containing 500 ppm caffeine or 200 ppm theobromine or 100 ppm naringin or 250 ppm salicin was compared by a panel of experts in each case with a sample that contained 500 ppm caffeine or 200 ppm theobromine or 100 ppm naringin or 250 ppm salicin and additionally the amount stated in each case of a substance to be assessed (with respect to capacity for reducing bitterness) (classification: 1 [not bitter] through 10 [extremely bitter]). The evaluation, i.e. calculation of the reduction (in %) of the impression of bitterness, was based in each case on the mean values of the appraisals of the panel of experts.

[2] = system: Caco-2 cells; conditions: from Chem. Pharm. Bull. 2010, 58, 242-246; cited from earlier work
[3] = Reduction of bitterness of a theobromine solution, panel of experts; type: in vivo; conditions: 300 ppm theobromine; for Impression of bitterness (1-10) b) with test substance: scale 1-10
[4] = system: BGC823 cancer cell line; conditions: from CN 101906090; cited from earlier work
[5] = Reduction of bitterness of a caffeine solution, panel of experts; type: in vivo; conditions: 500 ppm caffeine; for Impression of bitterness (1-10) b) with test substance: scale 1-10
Description: as §1

[6] = Reduction of bitterness of a salicin solution, panel of experts; type: in vivo; conditions: 250 ppm salicin, 50 ppm test substance
Description: as §1

[7] = Reduction of bitterness/astringency of an EGCG solution as a function of time, panel of experts; type: in vivo; conditions: 750 ppm EGCG + 125 ppm ascorbic acid, 50 ppm test substance
Description: In order to quantify the reduction (i.e. the masking or decrease) of the impression of bitterness or astringency in a sample over a specified course of time, the bitterness, or astringency of a solution containing 750 ppm epigallocatechin gallate (EGCG) and 125 ppm ascorbic acid was compared by a panel of experts in each case with a sample that contained 750 ppm epigallocatechin gallate, 125 ppm ascorbic acid and additionally the amount stated in each case of a substance to be assessed (with respect to capacity for reducing bitterness), in this case a racemic mixture of compounds (7) and (8) (classification: 1 [not bitter] through 10 [extremely bitter]; or 1 [not astringent] through 10 [extremely astringent]). […] The samples were assessed by the members of the panel one after another after neutralization. The evaluation, i.e. calculation of the reduction (in %) of the impression of bitterness/astringency was based at each measurement time point in each case on the mean values of the appraisals of the panel of experts for the epigallocatechin gallate solution and the sample to be compared, containing epigallocatechin gallate and a substance to be assessed.

[8] = 25 ppm test substance, scale 1-10

O=C1CC(c2ccccc2O)c2c(O)cc(O)cc2O1 (racemic) [(1) + (2), 5,7-dihydroxy-4-(2-hydroxyphenyl)chroman-2-one]
% reduction of the impression of bitterness ([1]; 5 ppm test substance): 31.7% | Impression of bitterness (1-10) b) with test substance ([1]; 5 ppm test substance, scale 1 [not bitter] through 10 [extremely bitter]): 3.7 ± 2.6

COc1cc(C2CC(=O)Oc3cc(O)cc(OC)c32)cc(OC)c1OC (centres unmarked) [(40)]
cytotoxicity against Caco-2 cells [2]: strong cytotoxicity

COc1cc(C2CC(=O)Oc3cc(O)ccc32)ccc1O (racemic) [(23) + (24), 7-hydroxy-4-(4-hydroxy-3-methoxyphenyl)chroman-2-one]
% reduction of the impression of bitterness ([3]; 25 ppm test substance): 22.4% | Impression of bitterness (1-10) b) with test substance ([3]; 25 ppm test substance): 3.5 ± 1.6

COc1ccc(C2CC(=O)Oc3cc(O)ccc32)cc1O (centres unmarked) [(39)]
effectiveness against the BGC823 cancer cell line [4]: effective

O=C1CC(c2ccc(O)cc2)c2ccc(O)cc2O1 (racemic) [(17) + (18), 7-hydroxy-4-(4-hydroxyphenyl)chroman-2-one]
% reduction of the impression of bitterness ([1]; 25 ppm test substance): 44.3% | Impression of bitterness (1-10) b) with test substance [1, 8]: 3.0 ± 1.6

COc1cc(C2CC(=O)Oc3cc(O)cc(O)c32)ccc1O (racemic) [(5) + (6), 5,7-dihydroxy-4-(4-hydroxy-3-methoxyphenyl)chroman-2-one]
% reduction of the impression of bitterness ([5]; 50 ppm test substance): 23.5% | Impression of bitterness (1-10) b) with test substance ([5]; 50 ppm test substance): 3.0 ± 1.3 | % reduction of the impression of bitterness [6]: 11.1% | Impression of bitterness (1-10) b) with test substance ([6]; scale 1-10): 5.9 ± 2.5 | % reduction of the impression of bitterness ([1]; 25 ppm test substance): 49.0% | Impression of bitterness (1-10) b) with test substance [1, 8]: 3.1 ± 1.4 | % reduction of the impression of bitterness ([3]; 25 ppm test substance): 30.3% | Impression of bitterness (1-10) b) with test substance ([3]; 25 ppm test substance): 3.1 ± 1.6

O=C1CC(c2ccc(O)cc2)c2c(O)cc(O)cc2O1 (racemic) [(7) + (8), 5,7-dihydroxy-4-(4-hydroxyphenyl)chroman-2-one]
% reduction of the impression of bitterness ([5]; 25 ppm test substance): 15.5% | Impression of bitterness (1-10) b) with test substance ([5]; 25 ppm test substance): 3.4 ± 1.4 | % reduction of the impression of astringency ([7]; time 0 s): −1% | % reduction of the impression of bitterness ([7]; time 0 s): −14% | % reduction of the impression of astringency ([7]; time 10 s): −7% | % reduction of the impression of bitterness ([7]; time 10 s): −22%* | % reduction of the impression of astringency ([7]; time 30 s): −7% | % reduction of the impression of bitterness ([7]; time 30 s): −25%* | % reduction of the impression of astringency ([7]; time 50 s): −19% | % reduction of the impression of bitterness ([7]; time 50 s): −35%* | % reduction of the impression of astringency ([7]; time 70 s): −15% | % reduction of the impression of bitterness ([7]; time 70 s): −29% | % reduction of the impression of bitterness ([1]; 25 ppm test substance): 48.6% | Impression of bitterness (1-10) b) with test substance [1, 8]: 2.9 ± 1.9 | % reduction of the impression of bitterness ([3]; 10 ppm test substance): 21.7% | Impression of bitterness (1-10) b) with test substance ([3]; 10 ppm test substance): 3.6 ± 1.5
